Test results reported in patent publication US8258103B2, “Pesticidal composition” (Sumitomo Chemical Company, Limited, priority 2007, dated 2012).

Columns and labels:
Spodoptera litura [1] = assay: Test Example 1: cabbage leaf immersion test, insecticidal rate on fourth-instar larvae; format: in vivo; details: for Found value of insecticidal rate (%): after 2 days
Experimental: (§1) The theoretical value of an insecticidal (ovicidal) rate obtained by using a mixture of 2 kinds of active ingredients was calculated by the following formula: E=X+Y−(X×Y/100), which conforms to the Colby's formula. X: Insecticidal rate (%) of the active ingredient A at M Ppm Y: Insecticidal rate (%) of the active ingredient B at N ppm E: Theoretical insecticidal rate (%) of combination use of the active ingredient A at M ppm and the active ingredient B at N ppm
(§2) When an actual insecticidal (ovicidal) rate exceeds the theoretical value, it is determined that the used two active ingredients produce a synergetic effect.
(1) 12 parts of spinetoram as the present compound 1, 35 parts of a carrier on which a polyoxyethylene alkyl ether sulfate ammonium salt and white carbon in a weight ratio of 1:1 were adsorbed, and 53 parts of water were mixed, and finely milled by a wet milling method to obtain a spinetoram formulation (hereinafter, referred to as the formulation A).
(2) A flowable formulation containing 10 parts of pyridalyl, which is the present compound 2, as the active ingredient (trade name: PLEO flowable, manufactured by Sumitomo Chemical Co., Ltd.) (hereinafter, referred to as the formulation B) was used.
(3) The formulation A was diluted with water to prepare a water dilution having an active ingredient concentration shown in Table 1. To the water dilution, 1/5,000 volume of a spreading agent (Sindain, manufactured by Sumitomo Chemical Takeda Agro Co., Ltd.) was added to prepare a test solution containing the present compound 1. The formulation B was diluted with water to prepare a water dilution having an active ingredient concentration shown in Table 1. To the water dilution, 1/5,000 volume of a spreading agent (Sindain, manufactured by Sumitomo Chemical Takeda Agro Co., Ltd.) was added to prepare a test solution containing the present compound 2.
A water dilution of the formulation A and a water dilution of the formulation B were mixed so that the respective active ingredients could reach concentrations shown in Table 1. To the mixture, 1/5,000 volume of a spreading agent (Sindain, manufactured by Sumitomo Chemical Takeda Agro Co., Ltd.) was added to prepare a test solution containing the present compound 1 and the present compound 2.
(4) A cabbage was planted in a pot and grown until the fourth leaf stage. The leaves of the cabbage were cut off one by one, and then immersed in the above-described test solution for 60 seconds. After air drying, the cabbage leaves were each placed in a cup with a filter paper spread on the bottom. Ten fourth-instar larvae of Spodoptera litura were released into each cup. […] An insecticidal rate was calculated and corrected according to the following formula.
Insecticidal rate (%)=100×(Mt−Mc)/(100−Mc)
(§3) Mt: Worm death rate (%) in a section treated with a test compound
(§4) Mc: Worm death rate (%) in a section not treated with a test compound

Spodoptera litura [2] = assay: Test Example 2: cabbage leaf immersion test, insecticidal rate on fourth-instar larvae; format: in vivo; details: after 2 days
Experimental: as §1, §2
(1) The formulation A was diluted with water to prepare a water dilution having an active ingredient concentration shown in Table 2. To the water dilution, 1/5,000 volume of a spreading agent (Sindain, manufactured by Sumitomo Chemical Takeda Agro Co., Ltd.) was added to prepare a test solution containing the present compound 1.
The formulation B was diluted with water to prepare a water dilution having an active ingredient concentration shown in Table 2. To the water dilution, 1/5,000 volume of a spreading agent (Sindain, manufactured by Sumitomo Chemical Takeda Agro Co., Ltd.) was added to prepare a test solution containing the present compound 2.
A water dilution of the formulation A and a water dilution of the formulation B were mixed so that the respective active ingredients could reach concentrations shown in Table 2. To the mixture, 1/5,000 volume of a spreading agent (Sindain, manufactured by Sumitomo Chemical Takeda Agro Co., Ltd.) was added to prepare a test solution containing the present compound 1 and the present compound 2.
(2) A cabbage was planted in a pot and grown until the fourth leaf stage. The leaves of the cabbage were cut off one by one, and then immersed in the above-described test solution for 60 seconds. After air drying, the cabbage leaves were each placed in a cup with a filter paper spread on the bottom. Ten fourth-instar larvae of Spodoptera litura were released into each cup. […] An insecticidal rate was calculated and corrected according to the following formula. Insecticidal rate (%)=100×(Mt−Mc)/(100−Mc)
as §3, §4

Compound	Theoretical value of insecticidal rate (%) (Spodoptera litura [1]; 2.5 ppm single ingredient)	Found value of insecticidal rate (%) (Spodoptera litura [1]; 2.5 ppm single ingredient)	Found value of insecticidal rate (%) (Spodoptera litura [2]; 0.25 ppm single ingredient)	Found value of insecticidal rate (%) (Spodoptera litura [2]; 2.5 ppm single ingredient)	Theoretical value of insecticidal rate (%) (Spodoptera litura [1]; 0.73 ppm single ingredient)	Found value of insecticidal rate (%) (Spodoptera litura [1]; 0.73 ppm single ingredient)	Theoretical value of insecticidal rate (%) (Spodoptera litura [1]; 2.9 ppm single ingredient)	Found value of insecticidal rate (%) (Spodoptera litura [1]; 2.9 ppm single ingredient)
FC(F)(F)c1ccc(OCCCOc2c(Cl)cc(OCC=C(Cl)Cl)cc2Cl)nc1 [Pyridalyl (present compound 2), 2,6-dichloro-4-(3,3-dichloroallyloxy)phenyl 3-[5-(trifluoromethyl)-2-pyridyloxy]propyl ether]	0%	0%	0%	16.7%	–	–	–	–
spinetoram [Spinetoram (present compound 1)]	–	–	0%	0%	0%	0%	0%	0%
